Data taken from patent publication US20210069375A1, “Extracellular Matrices, Uses thereof, and Method for Making Extracellular Matrices” (Gemstone Biotherapeutics LLC, priority 2017, published 2021).

Assay: reactivity of the drug under the curing conditions of the EMR
Format: physicochemical
Details: mixed with dextramate, PEGDA and Irgacure, cured for 10 minutes
Method: Dextramate (24.2 mL of a 23.1 w/w % solution), PEGDA (16.3 mL of a 8.6 w/w % solution), Irgacure (14 mL of a 0.5 w/w % solution), and valsartan (2.82 mL or 1.41 mL of a 24.8 w/w % solution or 2.82 mL of a 1:10 dilution of a 24.8 w/w % solution) are mixed together. The mixture is cured for 10 minutes. After curing, 100 mL of dH2O is added to the cured product to create a swelled gel.

## CCCCC(=O)N(Cc1ccc(-c2ccccc2-c2nnn[nH]2)cc1)[C@H](C(=O)O)C(C)C [valsartan]
  reactivity under the curing conditions: does not exhibit reactivity
